Results on eleven compounds are retold here after patent publication US7101902B2, “2-guanidinylimidazolidinedione compounds and methods of making and using thereof” (The United States of America as represented by the …, priority 2003, dated 2006).

Bounds are passed on as bounds.

The subject of the test is Plasmodium yoelii (17×). Nature of the test: Sporozoite induced test in mouse (causal prophylactic activity). The class given is in vivo. Conditions: sporozoite challenged CD-1 mice; single dose 4 hours before inoculation; oral administration. On the procedure: The causal prophylactic antimalarial activity of the new carbamate derivatives were assessed in a sporozoites challenged mouse model according to the following protocol and the results are shown in Table 4 and Table 5.
Each compound was ground with a mortar and pestle and suspended in 0.5% hydroxyethylcellulose and 0.1% Tween 80 for compounds to be administered PO and those given SC were suspended in peanut oil. Each compound is prepared at 3 different dose levels.
Compounds were administered either PO or SC to mice once 4 hours before inoculation of sporozoites.
Four-week-old male CD-1 mice, purchased from Charles River and weighing about 16 to about 17 grams were placed 5 per cage and allowed to acclimate for 4 days before being treated and then inoculated with sporozoites. They were fed food and water ad-lib and maintained at 76° F. with 12 hour light and 12 hour darkness. The cages and water bottles were changed biweekly. The mice are weighed on Days 0, 3 and 6 then biweekly when blood films were taken.
Plasmodium yoelii (17×) was used to infect mice that will be used to infect the mosquitoes.
Mice were given a single dose of test compound 4 hours before being inoculated intraperitoneally with 2.5×10^5 sporozoites of Plasmodium yoelii on Day 0. Whole body weights were taken on Day 0 and Day 6 then twice a week for 31 days. A blood film was taken on Day 5 and then twice a week for 31 days. Mice loosing greater than about 20% of their body weight were sacrificed. All mice alive on Day 31 with no parasites in a blood film were considered cured. Donor mice used to infect the mosquitoes were infected with 2.5×10^4 parasitized erythrocytes. The mosquitoes were allowed to feed on these malaria-infected mice on Day 4 of their infection when the parasitemia was low.
A compound was considered active against either the sporozoite or the EE stage if no parasites were found in the blood films taken on Day 5 or on subsequent blood films taken weekly for 31 days.
Mice alive on Day 31 with no parasites found in any blood films were considered cured.
Regarding `CC(C)COC(=O)N=C(N=C1NC(=O)C(=O)N1C(C)C)Nc1ccc(Cl)c(Cl)c1` [Compound 3b, N-(3,4-dichlorophenyl)-N′-(isobutoxycarbonyl)-N″-(1-isopropyl-4,5-dioxo-imidazolidin-2-ylidene)-guanidine], the “Minimum Protective Dose Against P. yoelii” value is >40 mg/kg. Regarding `CCCCCCOC(=O)N=C(N=C1NC(=O)C(=O)N1C(C)C)Nc1ccc(Cl)c(Cl)c1` [Compound 3e, N-(3,4-dichlorophenyl)-N′-(1-hexyloxycarbonyl)-N″-(1-isopropyl-4,5-dioxo-imidazolidin-2-ylidene)-guanidine], the “Minimum Protective Dose Against P. yoelii” value is reported as 40 mg/kg. In the case of `C=CCCOC(=O)N=C(N=C1NC(=O)C(=O)N1C(C)C)Nc1ccc(Cl)c(Cl)c1` [Compound 3g, N-(3,4-dichlorophenyl)-N′-(3-butenyloxycarbonyl)-N″-(1-isopropyl-4,5-dioxoimidazolidin-2-ylidene)-guanidine] it was 160 mg/kg. In the case of `CC(C)N1C(=O)C(=O)NC1=NC(=NC(=O)OCCOCc1ccccc1)Nc1ccc(Cl)c(Cl)c1` [Compound 3h, N-(3,4-dichloro-phenyl)-N′-(2-benzyloxyethoxycarbonyl)-N″-(1-isopropyl-4,5-dioxo-imidazolidin-2-ylidene)-guanidine] it was 160 mg/kg.

Turning to `CC(C)NC(=NC(=O)OC(C)(C)C)N=C1NC(=O)C(=O)N1c1ccc(Cl)c(Cl)c1` [Compound 4c, N-[1-(3,4-dichlorophenyl)-4,5-dioxo-imidazolidin-2-ylidene]-N′-isopropyl-N″-(tert-butoxycarbonyl)guanidine], the “Minimum Protective Dose Against P. yoelii” value stood at 1.25 mg/kg. With `CCCCCCOC(=O)N=C(N=C1NC(=O)C(=O)N1c1ccc(Cl)c(Cl)c1)NC(C)C` [Compound 4e, N-[1-(3,4-dichlorophenyl)-4,5-dioxo-imidazolidin-2-ylidene]-N′-isopropyl-N″-(1-hexyloxycarbonyl)guanidine], the “Minimum Protective Dose Against P. yoelii” value came to 5 mg/kg.

On to `C[C@H]1[C@@H](O)O[C@@H]2O[C@@]3(C)CC[C@H]4[C@H](C)CC[C@@H]1[C@@]24OO3` [Dihyroartemisinin, reference compound], for which the “Minimum Protective Dose Against P. yoelii” value is 160 mg/kg. As for `COc1cc(NC(C)CCCN)c2ncccc2c1` (centres unmarked) [Primaquine, reference compound], the “Minimum Protective Dose Against P. yoelii” value is given as 40 mg/kg. In the case of `COc1cc(C)c2c(Oc3cccc(C(F)(F)F)c3)c(OC)cc(NC(C)CCCN)c2n1` (centres unmarked) [Tafenoguine, reference compound] it was 2.5 mg/kg. The figure for “N-(3,4-dichloro-phenyl)-N′-(5-methyl-2-oxo-1,3-dioxol-4-yl)methyl-N″-(1-isopropyl-4,5-dioxo-imidazolidin-2-ylidene)guanidine [Compound 3f]” is >40 mg/kg; for “N-(3,4-dichlorophenyl)-N′-(benzyloxycarbonyl)-N″-(1-isopropyl-4,5-dioxo-imidazolidin-2-ylidene)-guanidine [Compound 3d]” it is >160 mg/kg.
